Common to all, as to format: cell-based
Test [1] has as its target T1, human TLR2 (Homo sapiens, UniProt O60603).
T1 construct: host or cells: HEK-Blue hTLR2 (HEK-293)
In words: HEK-Blue hTLR2 antagonism assay (SEAP reporter) with agonist Pam2CSK4 (TLR2/6 agonist). The settings on record: HEK-Blue hTLR2 cells, ~3×EC50 Pam2CSK4, 18 h, SEAP OD 655 nm, 8-point dilutions.

The target of test [2] is T1, human TLR2. In words: HEK-Blue hTLR2 antagonism assay (SEAP reporter) with agonist Pam3CSK4 (TLR1/2 agonist). Particulars: HEK-Blue hTLR2 cells, ~3×EC50 Pam3CSK4, 18 h, SEAP OD 655 nm, 8-point dilutions.
In another test the target is T2, human TLR9 (Homo sapiens, UniProt Q9NR96).
T2 construct: host or cells: HEK-Blue hTLR9 (HEK-293)
T2 sequence (Q9NR96 26-1032): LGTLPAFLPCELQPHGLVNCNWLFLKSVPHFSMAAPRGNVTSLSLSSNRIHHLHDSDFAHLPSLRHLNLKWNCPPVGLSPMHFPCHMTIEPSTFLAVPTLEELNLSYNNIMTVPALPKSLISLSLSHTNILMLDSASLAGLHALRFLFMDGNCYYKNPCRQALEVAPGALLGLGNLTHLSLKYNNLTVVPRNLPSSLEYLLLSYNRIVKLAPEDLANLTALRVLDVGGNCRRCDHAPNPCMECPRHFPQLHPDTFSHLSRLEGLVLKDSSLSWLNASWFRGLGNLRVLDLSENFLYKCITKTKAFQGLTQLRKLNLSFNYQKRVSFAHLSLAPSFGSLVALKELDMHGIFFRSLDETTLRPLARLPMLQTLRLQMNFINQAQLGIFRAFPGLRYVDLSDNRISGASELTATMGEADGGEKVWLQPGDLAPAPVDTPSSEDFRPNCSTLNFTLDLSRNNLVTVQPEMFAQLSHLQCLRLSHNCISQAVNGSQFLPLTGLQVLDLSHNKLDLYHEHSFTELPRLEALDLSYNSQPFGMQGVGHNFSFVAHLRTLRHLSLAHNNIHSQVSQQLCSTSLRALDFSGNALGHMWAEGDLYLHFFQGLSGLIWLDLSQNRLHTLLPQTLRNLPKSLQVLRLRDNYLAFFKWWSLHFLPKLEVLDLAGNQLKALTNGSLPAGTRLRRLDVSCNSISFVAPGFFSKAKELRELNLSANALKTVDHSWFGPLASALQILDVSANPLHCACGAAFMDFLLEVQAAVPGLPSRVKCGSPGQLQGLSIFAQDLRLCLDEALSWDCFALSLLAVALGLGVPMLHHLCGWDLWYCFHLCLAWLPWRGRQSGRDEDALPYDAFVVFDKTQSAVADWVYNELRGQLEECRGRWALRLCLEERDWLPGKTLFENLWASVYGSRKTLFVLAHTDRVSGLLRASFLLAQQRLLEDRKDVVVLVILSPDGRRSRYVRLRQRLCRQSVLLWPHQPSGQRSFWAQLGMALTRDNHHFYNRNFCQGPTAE
In words: HEK-Blue hTLR9 assay (SEAP reporter) with agonist ODN 2006. Particulars: HEK-Blue hTLR9 cells, ~3×EC50 ODN 2006, 18 h, exact values 8-point dilutions, approximate (~ or <) 4-point dilutions, read-out: ~IC50 (μM) with ODN2006. As to the method: Synthetic ODNs (ODN 2006 (ODN7909), class B CpG oligonucleotide, TLR9 agonist) was obtained from InvivoGen and was dissolved in endotoxin-free water to a concentration 500 μM, vortexed until complete solubilization, and stored in aliquots at −20° C. Prior to addition to cells, an aliquot of the dissolved ligand was vortexed shortly and then was diluted in medium to 50 μM. The EC50 of the agonist for each assay run was determined by using 3-fold dilutions from the starting concentration 10 μM.
Test compounds were solubilized fresh to 10-20 mM stocks in DMSO and sonicated for 5-10 minutes in a water bath sonicator. Serial dilutions were prepared in DMSO, and then diluted in medium. The final concentration of DMSO used in the assay was 1%.
HEK-Blue hTLR9 reporter cells (InvivoGen) are HEK-293 cells stably expressing both the human TLR9 gene and a secreted embryonic alkaline phosphatase (SEAP) reporter construct downstream of NFκB promotor sites. HEK-Blue hTLR9 cells were cultured according to manufacturer's protocol using Dulbecco's Modified Eagle Medium (DMEM; Gibco) containing 1× GlutaMax (Gibco), 10% heat-inactivated Fetal Bovine Serum (Gibco), Pen-Strep (50 U/mL penicillin, 50 μg/mL streptomycin, Gibco), 100 μg/mL Normocin (InvivoGen), and the selective antibiotics, 10 μg/mL Blasticidin (InvivoGen), and 100 μg/mL Zeocin (InvivoGen). Quanti-Blue reagent (InvivoGen) for detection and quantification of secreted alkaline phosphatase was dissolved in 100 mL of endotoxin-free water, warmed to 37° C. for 30 minutes and then filtered using a 0.2 μm membrane.
On day 1, 50 μL of each test compound dilution in duplicates or a vehicle control was added to each well of a 96-well plate followed by addition of 150 μL of HEK-Blue hTLR9 cell suspension (1×10^5 cells/well) and incubated at 37° C./5% CO2 for 2 h. Next, 50 μL of an approximate 3×EC50 concentration of TLR9 agonist, ODN 2006, was added to the wells containing test compounds or the vehicle control. The plates were then incubated at 37° C./5% CO2 for 18 h. For each assay run, vehicle-treated HEK-Blue hTLR9 cells were treated with serial dilutions of agonist to determine EC50 values for the respective run.
On day 2, secreted alkaline phosphatase (SEAP) activity was detected in cell culture supernatants. In brief, 30 μL was collected from each well and transferred to a 96-well plate. Next, 200 μL of Quanti-Blue detection reagent was added to each well. Plates were incubated at 37° C. for 60 min. and SEAP activity was assessed by spectrophotometer OD reading at 655 nm. Table A and Table B show the activities of the compounds tested in HEK-Blue hTLR9 cells against ODN 2006. The activities of the compounds against ODN 2006 are presented as IC50 values which were defined as concentrations of the compounds where percent inhibition of the signal induced by agonist is equal to 50. Exact IC50 values were calculated based on 8-point dilutions for each compound. Approximate IC50 values (˜ or <) were calculated based on 4-point dilutions for each compound.

19 compounds from US11299487B2, “Compounds and compositions as modulators of TLR signaling” (Neuropore Therapies, Inc., priority 2019, dated 2022) can be followed below.

Like-named read-outs stand apart in the source and are kept apart here.

Broadly, the IC50 is the midpoint of a concentration-inhibition curve.

T1 sequence (O60603 21-784): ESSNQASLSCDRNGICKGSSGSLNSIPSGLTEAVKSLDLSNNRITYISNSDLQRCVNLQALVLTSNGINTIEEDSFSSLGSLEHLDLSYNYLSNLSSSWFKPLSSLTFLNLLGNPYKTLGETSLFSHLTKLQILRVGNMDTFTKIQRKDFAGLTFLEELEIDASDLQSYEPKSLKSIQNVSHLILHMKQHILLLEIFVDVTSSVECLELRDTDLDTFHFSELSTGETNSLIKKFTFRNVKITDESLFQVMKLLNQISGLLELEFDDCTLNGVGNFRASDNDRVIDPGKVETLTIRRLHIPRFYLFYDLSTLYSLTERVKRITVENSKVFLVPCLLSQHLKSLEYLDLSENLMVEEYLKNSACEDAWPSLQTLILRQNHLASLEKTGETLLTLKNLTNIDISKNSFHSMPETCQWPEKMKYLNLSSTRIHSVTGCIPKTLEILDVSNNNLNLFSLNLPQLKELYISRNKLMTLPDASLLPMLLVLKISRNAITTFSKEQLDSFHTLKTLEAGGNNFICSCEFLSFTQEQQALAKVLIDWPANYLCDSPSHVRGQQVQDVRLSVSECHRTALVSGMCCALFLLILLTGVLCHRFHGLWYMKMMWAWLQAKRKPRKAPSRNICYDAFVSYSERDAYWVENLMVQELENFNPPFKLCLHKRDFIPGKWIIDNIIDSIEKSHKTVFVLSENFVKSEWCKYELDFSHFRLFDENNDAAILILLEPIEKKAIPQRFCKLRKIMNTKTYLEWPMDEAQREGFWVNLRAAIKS

On to `O=Cc1cc(-c2csc(-c3ccc(N4CCCC4)cc3)c2)cc(F)c1O` [Compound A52, 3-fluoro-2-hydroxy-5-(5-(4-(pyrrolidin-1-yl)phenyl)thiophen-3-yl)benzaldehyde], for which the IC50 on human TLR2 [1] (Table A) was 0.7 µM; on human TLR2 [2] (Table A), 0.2 µM; at human TLR9 (Table A), less than 1.2 µM.
For `O=Cc1cc(-c2cnc(-c3ccc(N4CCCC4)cc3)s2)cc(F)c1O` [Compound A55, 3-fluoro-2-hydroxy-5-(2-(4-(pyrrolidin-1-yl)phenyl)thiazol-5-yl)benzaldehyde], the IC50 came out at 0.6 µM at human TLR2 [1] (Table A), 0.4 µM at human TLR2 [2] (Table A) and 0.2 µM on human TLR9 (Table A).
For `O=Cc1cc(-c2csc(-c3ccc(N4CCCC4)cc3)n2)cc(F)c1O` [Compound A57, 3-fluoro-2-hydroxy-5-(2-(4-(pyrrolidin-1-yl)phenyl)thiazol-4-yl)benzaldehyde] the same measures were 1 µM, 0.3 µM and 0.3 µM.
For `O=Cc1cc(-c2nsc(-c3ccc(N4CCCC4)cc3)n2)cc(F)c1O` [Compound A61, 3-fluoro-2-hydroxy-5-(5-(4-(pyrrolidin-1-yl)phenyl)-1,2,4-thiadiazol-3-yl)benzaldehyde] the same measures were 3.2 µM, 1 µM and less than 1.2 µM.
With `O=Cc1cc(-c2nc(-c3ccc(N4CCCC4)cc3)ns2)cc(F)c1O` [Compound A62, 3-fluoro-2-hydroxy-5-(3-(4-(pyrrolidin-1-yl)phenyl)-1,2,4-thiadiazol-5-yl)benzaldehyde], the half-maximal inhibitory concentration (IC50) at human TLR2 [1] (Table A) came out at 0.7 µM; on human TLR2 [2] (Table A), 0.4 µM; at human TLR9 (Table A) it was 0.2 µM.
With `O=Cc1cc(-c2cnc(-c3ccccc3)o2)cc(F)c1O` [Compound A88, 3-fluoro-2-hydroxy-5-(2-phenyloxazol-5-yl)benzaldehyde], the results for the IC50 at human TLR2 [1] (Table A), on human TLR2 [2] (Table A) and at human TLR9 (Table A) were 2.1 µM, 1.3 µM and approximately 3 µM, respectively.
For `O=Cc1cc(-c2cnc(-c3ccccc3)s2)cc(F)c1O` [Compound A91, 3-fluoro-2-hydroxy-5-(2-phenylthiazol-5-yl)benzaldehyde] the same measures were 3.8 µM, 2.1 µM and less than 1.2 µM.
For `O=Cc1cc(-c2nc(-c3ccccc3)cs2)cc(F)c1O` [Compound A93, 3-fluoro-2-hydroxy-5-(4-phenylthiazol-2-yl)benzaldehyde] the same measures were 4.8 µM, 2.1 µM and less than 1.2 µM.
In the same order, the values of `O=Cc1cc(-c2nnc(-c3ccccc3)s2)cc(F)c1O` [Compound A94, 3-fluoro-2-hydroxy-5-(5-phenyl-1,3,4-thiadiazol-2-yl)benzaldehyde] are 14.8 µM, 9.2 µM and less than 1.2 µM.
For the compound `O=Cc1cc(-c2nc(-c3ccccc3)ns2)cc(F)c1O` [Compound A95, 3-fluoro-2-hydroxy-5-(3-phenyl-1,2,4-thiadiazol-5-yl)benzaldehyde], the results for the 50% inhibitory concentration (IC50) on human TLR2 [1] (Table A), at human TLR2 [2] (Table A) and at human TLR9 (Table A) were 3 µM, 2.3 µM and approximately 1.4 µM, respectively.
In the same order, the values of `O=Cc1cc(-c2nc(-c3ccccc3)n[nH]2)cc(F)c1O` [Compound A96, 3-fluoro-2-hydroxy-5-(3-phenyl-1H-1,2,4-triazol-5-yl)benzaldehyde] are 12.1 µM, 8.8 µM and approximately 6.3 µM.
Consider `O=Cc1cc(C#Cc2ccc(N3CCCC3)cc2)cc(F)c1O` [Compound B1, 3-fluoro-2-hydroxy-5-((4-(pyrrolidin-1-yl)phenyl)ethynyl)benzaldehyde], for which the half-inhibitory concentration (IC50) at human TLR2 [1] (Table B) was 1.1 µM; at human TLR2 [2] (Table B), 0.7 µM; on human TLR9 (Table B) it was less than 1.2 µM.
On to `O=Cc1cc(C#Cc2ccc(N3CCOCC3)cc2)cc(F)c1O` [Compound B3, 3-fluoro-2-hydroxy-5-((4-morpholinophenyl)ethynyl)benzaldehyde], for which the half-maximal inhibitory concentration (IC50) on human TLR2 [1] (Table B) is 3.7 µM; at human TLR2 [2] (Table B), 2.2 µM; at human TLR9 (Table B) it was less than 1.2 µM.
As to `O=Cc1c(O)cc(C#Cc2ccc(N3CCCC3)cc2)cc1F` [Compound B4, 2-fluoro-6-hydroxy-4-((4-(pyrrolidin-1-yl)phenyl)ethynyl)benzaldehyde], the IC50 is 6.3 µM at human TLR2 [1] (Table B), 2.7 µM on human TLR2 [2] (Table B) and approximately 1.5 µM at human TLR9 (Table B).
Turning to `COc1cc(C#Cc2ccc(N3CCCC3)cc2)cc(O)c1C=O` [Compound B7, 2-hydroxy-6-methoxy-4-((4-(pyrrolidin-1-yl)phenyl)ethynyl)benzaldehyde], the 50% inhibitory concentration (IC50) at human TLR2 [1] (Table B) was 35.7 µM; at human TLR2 [2] (Table B), 20.8 µM; on human TLR9 (Table B), more than 33 µM.
For `O=Cc1cc(C(=O)Nc2ccccc2)cc(F)c1O` [Compound B11, 3-fluoro-5-formyl-4-hydroxy-N-phenylbenzamide] the same measures were 12 µM, 10.6 µM and less than 1.2 µM.
Take `O=Cc1cc(C(=O)Nc2ccc(N3CCCC3)cc2)cc(F)c1O` [Compound B12, 3-fluoro-5-formyl-4-hydroxy-N-(4-(pyrrolidin-1-yl)phenyl)benzamide]: the IC50 came to 2.7 µM at human TLR2 [1] (Table B), 2 µM on human TLR2 [2] (Table B) and 0.7 µM at human TLR9 (Table B).
For `O=Cc1cc(C(=O)Nc2ccc(C(F)(F)F)c(Cl)c2)cc(F)c1O` [Compound B14, N-(3-Chloro-4-(trifluoromethyl)phenyl)-3-fluoro-5-formyl-4-hydroxybenzamide] the same measures were 1.3 µM, 1.5 µM and more than 33 µM.
Consider `O=Cc1cc(S(=O)(=O)Nc2ccc(N3CCCC3)cc2)cc(F)c1O` [Compound B17, 3-fluoro-5-formyl-4-hydroxy-N-(4-(pyrrolidin-1-yl)phenyl)benzenesulfonamide], for which the figures for the 50% inhibitory concentration (IC50) at human TLR2 [1] (Table B), at human TLR2 [2] (Table B) and at human TLR9 (Table B) were 12.7 µM, 6.6 µM and approximately 2.9 µM, respectively.
